Results published in patent publication US6632981B1, “DNA sequences encoding polypeptides having beta-1,3-glucanase activity” (Novartis Finance Corporation, priority 1988, dated 2003).

Tests used:
[1] = test system: chemically regulatable chimeric genes coding for GUS, AHAS or BT; assay: Primer extension assay for mRNA of chemically regulatable chimeric genes; format: in vivo; conditions: callus or regenerated plant material from transgenic plants; level proportional to amount of regulator applied
Protocol: 50 g of total RNA is lyophilized in a 500 l Eppendorf tube. The RNA is resuspended in 30 l of radiolabeled probe solution and heated to 70′ C. for 10 minutes. The tube is slowly cooled to 37° C. and allowed to incubate overnight. Without removing the tube from the 37° C. water bath, 2 l of 10×reverse-transcriptase buffer (500 mM Tris-HCl, pH 7.5, 400 mM KCl, 30 mM MgCl2), 1 l 5 mg/ml bovine serum albumin, 5 l 100 mM dithiothreitol, 5 l 10×dNTPs (10 mM of each dNTP in H2O), 3 l H 20, 2 l RNasin (80 units), and 2 l reverse transcriptase (400 units) are added and the reaction is incubated at 37° C. for 30 minutes. To stop the reaction, 5 l of 3 M sodium acetate, pH 5, and 150 l absolute ethanol are added. The tube is left at −20° C. for 30 minutes, the precipitate is collected by centrifugation, washed with 80% ethanol and allowed to air-dry. The precipitate is resuspended in 10-20 l of loading dye (90% formamide, 0.05% bromophenol blue, 0.05% xylene cyanol, 1 mM EDTA) and the extension products are separated on a 6% sequencing gel (Maniatis, T. et al., supra). Extension products are visualized by autoradiography.
Plant materials induced and harvested as in Examples 140 to 142 are assayed for the induction of mRNA species by the isolation of RNA and the primer extension assay as described in Example 6.
The level of mRNA is proportional to the amount of regulator applied.

[2] = test system: PR-1 promoter-LUC gene fusion; assay: Chemical induction of the Arabidopsis PR-1 promoter-LUC gene fusion; format: in vivo
Description: pAtPR1-R was cleaved with XhoI and SacI and transferred to SalI/SacI cleaved pCIB200 to create a binary vector construction (pAtPR1-S) suitable for Arabidopsis transformation (see example 28). pAtPR1-S was then transferred to Agrobacterium tumefaciens strain A136/pCIB542 for transfer to Arabidopsis Dijon-0 using the method described by Wen-jun and Forde, Nucl. Acids Res. 17: 8385-8386 (1989). T2 or […] lines carrying the PR1-LUC transgene in the homozygous state were generated for chemical induction analysis.
Leaves of transgenic Arabidopsis lines carrying the PR-1 promoter-LUC gene fusion were treated by spraying with 0.15 g/ml INA (isonicotinic acid) for 48 h. Five days later, sprayed leaves were analyzed for luciferase activity using the Promega Luciferase Assay System (Cat. #E 1500). […] In other assays, luciferase activity was measured by imaging lines for bioluminescence using intensified cameras (VIM) and photon-counting image processors (ARGUS-50 or ARGUS-100) from Hamamatsu Photonic Systems (Bridgewater, N.J.). Leaves were sprayed with INA and subsequently with a 5 mM solution of D-luciferin (Analytical Bioluminescence Laboratories, San Diego, Calif.) 24 h before and then immediately before imaging.

SAR response = assay: Chemical induction of SAR in nahG-expressing plants; format: in vivo, Nicotiana tabacum cv Xanthi-nc; conditions: plants of lines nahG-3, -8 and -10 (blocked in SAR response to disease infection) treated with the inducing chemical
Description: Three lines, nahG-3, -8 and -10, were shown above to express high levels of nahG mRNA and salicylate hydroxylase protein, and to be blocked in their SAR response to disease infection.

[3] = test system: PR-1a promoter fused to a gene encoding the delta-endotoxin of Bacillus thuringensis; assay: Chemical regulation of PR-1a promoter/Bacillus thuringiensis delta-endotoxin gene in nahG-expressing plants; format: in vivo; conditions: progeny of PR-1a promoter/delta-endotoxin plants crossed to nahG-3, -8 and -10
[4] = test system: PR-1a promoter fused to the GUS reporter gene; assay: Chemical regulation of PR-1a promoter/GUS in nahG-expressing plants; format: in vivo; conditions: progeny of PR-1a promoter/GUS plants crossed to nahG-3, -8 and -10
Description: Consequently, the chemical regulation of the PR-1a gene promoter can be utilized without the activation of the endogenous cell signal SA.

salicylic acid = assay: Antagonism of the salicylic acid cell signal on exogenous application to a plant; format: in vivo; conditions: applied exogenously to a plant
Description: Those skilled in the art will appreciate that other means can be employed to achieve the same effect. For instance, a second method involves the expression or overexpression in a transformed plant of a gene encoding an enzyme which catalyzes the modification; e.g., degradation, of a metabolic precursor of the signal molecule so that the plant is rendered incapable of producing the signal molecule. A third method involves the external application to the plant of antagonists of the target cell signal. […] Instead, inhibition of the cell signal response is effected. […] See, Yang and Hoffman, Ann. Rev. Plant Physiol. 35:155-189 (1984).

O=C(O)c1cc(Cl)nc(Cl)c1 [2,6-dichloroisonicotinic acid]
level of mRNA of the chimeric gene (GUS, AHAS or BT primer), primer extension assay [1]: elevated levels of mRNA

O=C(O)c1ccncc1 [INA, isonicotinic acid]
bioluminescence (imaging, photon counting) ([2]; compared to water-treated controls, D-luciferin 5 mM): strongly induced bioluminescence
luciferase activity, induction over controls ([2]; leaves sprayed with 0.15 g/ml for 48 h, analyzed five days later, Promega Luciferase Assay System): 144 fold

CCC(C)N(N)C(=O)c1cccc2nnsc12 (centres unmarked) [benzo-1,2,3-thiadiazole-7-carboxylic acid N-sec-butylhydrazide]
level of mRNA of the chimeric gene (GUS, AHAS or BT primer), primer extension assay [1]: elevated levels of mRNA

O=C(O)c1cccc2nnsc12 [benzo-1,2,3-thiadiazole-7-carboxylic acid]
level of mRNA of the chimeric gene (GUS, AHAS or BT primer), primer extension assay [1]: elevated levels of mRNA
SAR response (SAR response): shown to possess the SAR response
endotoxin gene expression [3]: express the endotoxin gene
GUS expression [4]: express GUS

O=C(OCc1ccccc1)c1cccc2nnsc12 [benzyl benzo-1,2,3-thiadiazole-7-carboxylate]
level of mRNA of the chimeric gene (GUS, AHAS or BT primer), primer extension assay [1]: elevated levels of mRNA

CCCOC(=O)c1cccc2nnsc12 [n-propyl benzo-1,2,3-thiadiazole-7-carboxylate]
level of mRNA of the chimeric gene (GUS, AHAS or BT primer), primer extension assay [1]: elevated levels of mRNA

CC[Si](CC)(CC)c1ccccc1C(=O)O [o-triethylsilyl benzoic acid]
effect on the salicylic acid cell signal (salicylic acid): antagonistic effect
